Test results from patent US12545639B2, “3-substituted phenylamidine compounds, preparation and use thereof” (PI INDUSTRIES LTD., priority 2019, dated 2026).

What was measured:
Rhizoctonia solani = Rhizoctonia solani (rice sheath blight/potato black scurf) in vitro test, radial growth on potato dextrose agar; assay type: cell-based; settings: 168 h, 300 ppm in potato dextrose agar, 25° C., 60% relative humidity, seven days, read-out: control compared to the untreated check (radial growth)
Phakopsora pachyrhizi = Phakopsora pachyrhizi test in soybean, preventive, in vivo on plants; settings: in Glycine max, read-out: Efficacy (% control), disease severity compared to the untreated check
Pyricularia oryzae = assay: microbe, parasite or virus in culture; assay type: cell-based; settings: 168 h, read-out: control compared to the untreated check (radial growth)
Alternaria solani = Alternaria solani (early blight of tomato/potato) in vitro test, radial growth on potato dextrose agar; assay type: cell-based; settings: 168 h, 300 ppm in potato dextrose agar, 25° C., 60% relative humidity, seven days, read-out: control compared to the untreated check (radial growth)
Botrytis cinerea = Botrytis cinerea (gray mold) in vitro test, radial growth on potato dextrose agar; assay type: cell-based; settings: 168 h, 300 ppm in potato dextrose agar, 22° C., 90% relative humidity, seven days, read-out: control compared to the untreated check (radial growth)

CCN(C)C=Nc1cc(OC)cc(Cc2ccccc2)c1C [Compound 298, N′-(3-benzyl-5-methoxy-2-methylphenyl)-N-ethyl-N-methylformimidamide]
≥ 70%: inhibition of growth at 300 ppm (Rhizoctonia solani) | pest or weed control at 500 ppm (Phakopsora pachyrhizi) | inhibition of growth at 300 ppm (Pyricularia oryzae) | inhibition of growth at 300 ppm (Alternaria solani)

CCN(C)C=Nc1cc(F)cc(Cc2ccc(F)c(C(F)(F)F)c2)c1C [Compound 234, N-ethyl-N′-(5-fluoro-3-(4-fluoro-3-(trifluoromethyl)benzyl)-2-methylphenyl)-N-methylformimidamide]
≥ 70%: inhibition of growth at 300 ppm (Rhizoctonia solani) | pest or weed control at 500 ppm (Phakopsora pachyrhizi) | inhibition of growth at 300 ppm (Pyricularia oryzae) | inhibition of growth at 300 ppm (Alternaria solani)

CCN(C)C=Nc1cc(C)cc(Cc2ccc(F)c(C(F)(F)F)c2)c1Cl [Compound 218, N′-(2-chloro-3-(4-fluoro-3-(trifluoromethyl)benzyl)-5-methylphenyl)-N-ethyl-N-methylformimidamide]
≥ 70%: inhibition of growth at 300 ppm (Rhizoctonia solani) | pest or weed control at 500 ppm (Phakopsora pachyrhizi) | inhibition of growth at 300 ppm (Pyricularia oryzae) | inhibition of growth at 300 ppm (Alternaria solani)

CCN(C)C=Nc1cc(C#N)cc(Cc2ccc(Cl)cc2)c1C [Compound 311, N′-(3-(4-chlorobenzyl)-5-cyano-2-methylphenyl)-N-ethyl-N-methylformimidamide]
≥ 70%: inhibition of growth at 300 ppm (Rhizoctonia solani) | inhibition of growth at 300 ppm (Pyricularia oryzae) | inhibition of growth at 300 ppm (Botrytis cinerea)

CCN(C)C=Nc1cc(C)cc(Cc2cccc(OC)c2)c1Cl [Compound 28, N′-(2-chloro-3-(3-methoxybenzyl)-5-methylphenyl)-N-ethyl-N-methylformimidamide]
≥ 70%: inhibition of growth at 300 ppm (Rhizoctonia solani) | pest or weed control at 500 ppm (Phakopsora pachyrhizi) | inhibition of growth at 300 ppm (Pyricularia oryzae) | inhibition of growth at 300 ppm (Alternaria solani)

CCN(C)C=Nc1cc(Cl)cc(Cc2ccccc2OC(F)(F)F)c1C [Compound 247, N′-(5-chloro-2-methyl-3-(2-(trifluoromethoxy)benzyl)phenyl)-N-ethyl-N-methylformimidamide]
≥ 70%: inhibition of growth at 300 ppm (Rhizoctonia solani) | inhibition of growth at 300 ppm (Pyricularia oryzae) | inhibition of growth at 300 ppm (Botrytis cinerea) | inhibition of growth at 300 ppm (Alternaria solani)

CCN(C)C=Nc1cc(F)cc(Cc2ccc(OC(F)(F)F)cc2)c1C [Compound 176, N-ethyl-N′-(5-fluoro-2-methyl-3-(4-(trifluoromethoxy)benzyl)phenyl)-N-methylformimidamide]
≥ 70%: inhibition of growth at 300 ppm (Rhizoctonia solani) | inhibition of growth at 300 ppm (Pyricularia oryzae) | inhibition of growth at 300 ppm (Botrytis cinerea) | inhibition of growth at 300 ppm (Alternaria solani)

CCN(C)C=Nc1cc(F)cc(Cc2cccc(OC(F)(F)F)c2)c1C [Compound 173, N-ethyl-N′-(5-fluoro-2-methyl-3-(3-(trifluoromethoxy)benzyl)phenyl)-N-methylformimidamide]
≥ 70%: inhibition of growth at 300 ppm (Rhizoctonia solani) | inhibition of growth at 300 ppm (Pyricularia oryzae) | inhibition of growth at 300 ppm (Botrytis cinerea) | inhibition of growth at 300 ppm (Alternaria solani)

CCN(C)C=Nc1cc(C)cc(N(C)c2cc(Cl)ccc2C)c1Cl [Compound 110, N′-(2-chloro-3-((5-chloro-2-methylphenyl)(methyl)amino)-5-methylphenyl)-N-ethyl-N-methylformimidamide]
≥ 70%: inhibition of growth at 300 ppm (Botrytis cinerea) | inhibition of growth at 300 ppm (Alternaria solani)

CCN(C)C=Nc1cc(C)cc(N(C)c2ccc(F)cc2)c1Cl [Compound 69, N′-(2-chloro-3-((4-fluorophenyl)(methyl)amino)-5-methylphenyl)-N-ethyl-N-methylformimidamide]
≥ 70%: inhibition of growth at 300 ppm (Rhizoctonia solani) | pest or weed control at 500 ppm (Phakopsora pachyrhizi) | inhibition of growth at 300 ppm (Pyricularia oryzae) | inhibition of growth at 300 ppm (Alternaria solani)

CCN(C)C=Nc1cc(F)cc(Cc2ccccc2OC(F)(F)F)c1C [Compound 170, N-ethyl-N′-(5-fluoro-2-methyl-3-(2-(trifluoromethoxy)benzyl)phenyl)-N-methylformimidamide]
≥ 70%: inhibition of growth at 300 ppm (Rhizoctonia solani) | inhibition of growth at 300 ppm (Pyricularia oryzae) | inhibition of growth at 300 ppm (Botrytis cinerea) | inhibition of growth at 300 ppm (Alternaria solani)

CCN(C)C=Nc1cc(Cl)cc(Nc2ccc3ncsc3c2)c1C [Compound 242, N′-(3-(benzo[d]thiazol-6-ylamino)-5-chloro-2-methylphenyl)-N-ethyl-N-methylformimidamide]
≥ 70%: inhibition of growth at 300 ppm (Rhizoctonia solani) | pest or weed control at 500 ppm (Phakopsora pachyrhizi) | inhibition of growth at 300 ppm (Pyricularia oryzae) | inhibition of growth at 300 ppm (Alternaria solani)

CCc1cccc(N(C)c2cc(Cl)cc(N=CN(C)CC)c2C)n1 [Compound 253, N′-(5-chloro-3-((6-ethylpyridin-2-yl)(methyl)amino)-2-methylphenyl)-N-ethyl-N-methylformimidamide]
≥ 70%: inhibition of growth at 300 ppm (Rhizoctonia solani) | pest or weed control at 500 ppm (Phakopsora pachyrhizi) | inhibition of growth at 300 ppm (Pyricularia oryzae) | inhibition of growth at 300 ppm (Alternaria solani)

CCN(C)C=Nc1cc(C)cc(Cc2cccnc2)c1Cl [Compound 66, N′-(2-chloro-5-methyl-3-(pyridin-3-ylmethyl)phenyl)-N-ethyl-N-methylformimidamide]
≥ 70%: pest or weed control at 500 ppm (Phakopsora pachyrhizi) | inhibition of growth at 300 ppm (Pyricularia oryzae) | inhibition of growth at 300 ppm (Alternaria solani)

CCN(C)C=Nc1cc(C#N)cc(Cc2ccc(F)cc2)c1C [Compound 310, N′-(5-cyano-3-(4-fluorobenzyl)-2-methylphenyl)-N-ethyl-N-methylformimidamide]
≥ 70%: inhibition of growth at 300 ppm (Pyricularia oryzae) | inhibition of growth at 300 ppm (Botrytis cinerea) | inhibition of growth at 300 ppm (Alternaria solani)

CCN(C)C=Nc1cc(Cl)cc(Nc2ccccc2)c1C [Compound 155, N′-(5-chloro-2-methyl-3-(phenylamino)phenyl)-N-ethyl-N-methylformimidamide]
≥ 70%: pest or weed control at 500 ppm (Phakopsora pachyrhizi) | inhibition of growth at 300 ppm (Pyricularia oryzae) | inhibition of growth at 300 ppm (Alternaria solani)

CCN(C)C=Nc1cc(C)cc(N(C)c2ccc(F)c(OC)c2)c1Cl [Compound 288, N′-(2-chloro-3-((4-fluoro-3-methoxyphenyl)(methyl)amino)-5-methylphenyl)-N-ethyl-N-methylformimidamide]
≥ 70%: inhibition of growth at 300 ppm (Pyricularia oryzae) | inhibition of growth at 300 ppm (Botrytis cinerea) | inhibition of growth at 300 ppm (Alternaria solani)

CCc1cccc(N(C)c2cc(F)cc(N=CN(C)CC)c2C)n1 [Compound 239, N-ethyl-N′-(3-((6-ethylpyridin-2-yl)(methyl)amino)-5-fluoro-2-methylphenyl)-N-methylformimidamide]
≥ 70%: inhibition of growth at 300 ppm (Rhizoctonia solani) | pest or weed control at 500 ppm (Phakopsora pachyrhizi) | inhibition of growth at 300 ppm (Alternaria solani)

CCN(C)C=Nc1cc(C)cc(N(C)c2ncccc2C(F)(F)F)c1Cl [Compound 157, N′-(2-chloro-5-methyl-3-(methyl(3-(trifluoromethyl)pyridin-2-yl)amino)phenyl)-N-ethyl-N-methylformimidamide]
≥ 70%: pest or weed control at 500 ppm (Phakopsora pachyrhizi) | inhibition of growth at 300 ppm (Pyricularia oryzae) | inhibition of growth at 300 ppm (Alternaria solani)

CCN(C)C=Nc1cc(Cl)cc(Cc2cccc(C(F)(F)F)c2)c1C [Compound 127, N′-(5-chloro-2-methyl-3-(3-(trifluoromethyl)benzyl)phenyl)-N-ethyl-N-methylformimidamide]
≥ 70%: inhibition of growth at 300 ppm (Rhizoctonia solani) | pest or weed control at 500 ppm (Phakopsora pachyrhizi) | inhibition of growth at 300 ppm (Pyricularia oryzae) | inhibition of growth at 300 ppm (Alternaria solani)

CCN(C)C=Nc1cc(C)cc(N(C)c2cccc(C(C)C)c2)c1Cl [Compound 63, N′-(2-chloro-3-((3-isopropylphenyl)(methyl)amino)-5-methylphenyl)-N-ethyl-N-methylformimidamide]
≥ 70%: inhibition of growth at 300 ppm (Botrytis cinerea) | inhibition of growth at 300 ppm (Alternaria solani)

CCN(C)C=Nc1cc(C)cc(Nc2ncccc2C)c1Cl [Compound 86, N′-(2-chloro-5-methyl-3-((3-methylpyridin-2-yl)amino)phenyl)-N-ethyl-N-methylformimidamide]
≥ 70%: pest or weed control at 500 ppm (Phakopsora pachyrhizi) | inhibition of growth at 300 ppm (Pyricularia oryzae) | inhibition of growth at 300 ppm (Alternaria solani)

CCN(C)C=Nc1cc(F)cc(Nc2ccccc2)c1C [Compound 8, N-ethyl-N′-(5-fluoro-2-methyl-3-(phenylamino)phenyl)-N-methylformimidamide]
≥ 70%: inhibition of growth at 300 ppm (Pyricularia oryzae) | inhibition of growth at 300 ppm (Botrytis cinerea) | inhibition of growth at 300 ppm (Alternaria solani)

CCN(C)C=Nc1cc(F)cc(N(C)c2cc(F)cc(Cl)c2)c1C [Compound 106, N′-(3-((3-chloro-5-fluorophenyl)(methyl)amino)-5-fluoro-2-methylphenyl)-N-ethyl-N-methylformimidamide]
≥ 70%: inhibition of growth at 300 ppm (Botrytis cinerea) | inhibition of growth at 300 ppm (Alternaria solani)

CCN(C)C=Nc1cc(Cl)cc(Cc2ccccc2C#N)c1C [Compound 104, N′-(5-chloro-3-(2-cyanobenzyl)-2-methylphenyl)-N-ethyl-N-methylformimidamide]
≥ 70%: inhibition of growth at 300 ppm (Rhizoctonia solani) | pest or weed control at 500 ppm (Phakopsora pachyrhizi) | inhibition of growth at 300 ppm (Pyricularia oryzae) | inhibition of growth at 300 ppm (Alternaria solani)
